In the supplement of paper PMC10307832:

Key:
Assay in all cases: relative viability (nuclei count vs DMSO), 5 days (fraction); higher = more cells survive
[1] = compound: C1CC1C(=O)NC2=NNC3=C2C=CC(=C3)C4=CC(=CC=C4)C(=O)NC5CC5 [XMD13-2] + COc1cccc2cc(-c3nc([C@H]4CC[C@H](C(=O)O)CC4)n4ncnc(N)c34)[nH]c12 [OSI-027] (partner 0.5 µM)
Procedure, shortened: (§1)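 Lung cancer cell lines were pin-tool dosed in 1536-well plates on the day after seeding, with either a lone drug or a fixed anchor-drug dose plus five library-drug doses (not always all listed) in √10 steps. Nuclei were counted on 4× images after 5 days. Relative viability is the ratio of treated-well to vehicle-well nuclei counts, with each value a median of duplicate plates.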

[2] = compound: Cc1nc(Nc2ncc(C(=O)Nc3c(C)cccc3Cl)s2)cc(N2CCN(CCO)CC2)n1 [Dasatinib] + CC1(C)CCC(c2ccc(Cl)cc2)=C(CN2CCN(c3ccc(C(=O)NS(=O)(=O)c4ccc(N[C@H](CCN5CCOCC5)CSc5ccccc5)c(S(=O)(=O)C(F)(F)F)c4)cc3)CC2)C1 [Navitoclax] (partner 0.5 µM)
Procedure, shortened: as §1

[3] = compound: Cc1ccc(C(=O)Nc2cccc(C(F)(F)F)c2)cc1Nc1cncc(C(N)=O)c1 [ALW-II-49-7] + COc1cccc2cc(-c3nc([C@H]4CC[C@H](C(=O)O)CC4)n4ncnc(N)c34)[nH]c12 [OSI-027] (partner 0.5 µM)
Procedure, shortened: as §1

[4] = compound: Cc1nc(Nc2ncc(C(=O)Nc3c(C)cccc3Cl)s2)cc(N2CCN(CCO)CC2)n1 [Dasatinib] + COc1cc2c(Oc3ccc(NC(=O)C4(C(=O)Nc5ccc(F)cc5)CC4)cc3F)ccnc2cc1OCCCN1CCOCC1 [Foretinib] (partner 0.25 µM)
Procedure, shortened: as §1

Cell Line | relative viability ([1]; first compound 0.05 µM) | relative viability ([1]; first compound 0.1581 µM) | relative viability ([1]; first compound 0.5 µM) | relative viability ([1]; first compound 1.581 µM) | relative viability ([1]; first compound 5 µM) | relative viability ([2]; first compound 0.005 µM) | relative viability ([2]; first compound 0.01581 µM) | relative viability ([2]; first compound 0.05 µM) | relative viability ([2]; first compound 0.1581 µM) | relative viability ([2]; first compound 0.5 µM) | relative viability ([3]; first compound 0.08 µM) | relative viability ([3]; first compound 0.253 µM) | relative viability ([3]; first compound 0.8 µM) | relative viability ([3]; first compound 8 µM) | relative viability ([4]; first compound 0.005 µM) | relative viability ([4]; first compound 0.01581 µM) | relative viability ([4]; first compound 0.05 µM) | relative viability ([4]; first compound 0.1581 µM) | relative viability ([4]; first compound 0.5 µM) | relative viability ([3]; first compound 2.53 µM)
LK-2 | 0.236 | 0.151 | 0.191 | 0.239 | 0.216 | 0.782 | 0.594 | 0.373 | 0.292 | 0.245 | 0.202 | 0.205 | 0.213 | 0.186 | 1.08 | 0.967 | 0.656 | 0.588 | 0.304 | 
LOU-NH91 | 0.753 | 0.716 | 0.759 | 0.663 | 0.815 | 0.758 | 0.595 | 0.531 | 0.506 | 0.317 | 0.666 | 0.733 | 0.684 | 0.676 | 0.985 | 0.899 | 0.827 | 0.652 | 0.397 | 0.729
LU99A | 0.312 | 0.273 | 0.264 | 0.302 | 0.29 | 0.748 | 0.924 | 0.88 | 0.828 | 0.385 | 0.293 | 0.288 | 0.282 | 0.294 | 0.849 |  | 0.723 | 0.59 | 0.383 | 0.282
LXF-289 | 0.874 | 0.761 | 0.829 | 0.697 | 0.867 | 1.01 | 0.969 | 0.923 | 0.408 | 0.171 | 0.697 | 0.901 | 0.846 | 0.735 | 1.01 | 0.983 | 0.914 | 0.513 | 0.125 | 0.81
NCI-H23 | 0.761 | 0.544 | 0.593 | 0.411 | 0.783 | 0.828 | 0.716 | 0.896 | 0.496 | 0.315 | 0.52 | 0.492 | 0.476 | 0.475 | 0.864 | 0.649 | 0.676 | 0.457 | 0.484 | 0.562
NCI-H322M | 0.576 | 0.507 | 0.519 | 0.588 | 0.593 | 1.28 | 1.27 | 1.31 | 0.524 | 0.237 | 0.54 | 0.469 | 0.444 | 0.406 | 0.909 | 0.75 | 0.485 | 0.285 | 0.233 | 0.447
NCI-H441 | 0.682 | 0.777 | 0.578 | 0.485 | 0.588 | 0.579 | 0.544 | 0.456 | 0.241 | 0.135 | 0.657 | 0.57 | 0.867 | 0.466 | 1.06 | 0.988 | 1.02 | 0.701 | 0.382 | 0.48
NCI-H460 | 0.939 | 0.837 | 0.713 | 0.723 | 0.645 | 0.828 | 0.912 | 0.815 | 0.563 | 0.217 | 0.467 | 0.641 | 0.81 | 0.115 | 1.04 | 0.904 | 0.808 | 0.716 | 0.746 | 0.682
NCI-H520 | 0.306 | 0.278 | 0.232 | 0.294 | 0.225 | 0.946 | 0.644 | 0.555 | 0.273 | 0.27 | 0.258 | 0.249 | 0.25 | 0.262 | 0.631 | 0.427 | 0.36 | 0.175 | 0.175 | 0.242
NCI-H596 | 0.776 | 0.673 | 0.715 | 0.79 | 0.985 | 0.818 | 0.707 | 0.726 | 0.253 | 0.187 | 0.777 | 0.749 | 0.589 | 0.776 | 0.688 | 0.66 | 0.521 | 0.376 | 0.291 | 0.624
NCI-H647 | 0.779 | 0.781 | 0.669 | 0.59 | 0.508 | 0.983 | 0.731 | 0.392 | 0.307 | 0.152 | 0.665 | 0.736 | 0.495 | 0.619 | 1.11 | 1.17 | 0.649 | 0.276 | 0.252 | 0.434
NCI-H727 | 0.543 | 0.68 | 0.573 | 0.54 | 0.664 | 0.404 | 0.266 | 0.186 | 0.139 | 0.143 | 0.688 | 0.611 | 0.429 | 0.511 | 0.616 | 0.512 | 0.431 | 0.278 | 0.185 | 0.527
NCI-H838 | 0.432 | 0.402 | 0.339 | 0.398 | 0.437 | 1.03 | 0.791 | 0.709 | 0.389 | 0.21 | 0.352 | 0.385 | 0.389 | 0.378 | 0.679 | 0.654 | 0.552 | 0.313 | 0.236 | 0.434
NCI-H1355 | 0.48 | 0.413 | 0.394 | 0.382 | 0.387 | 0.858 | 0.653 | 0.92 | 0.534 | 0.376 | 0.372 | 0.404 | 0.363 | 0.353 | 1.03 | 0.719 | 0.908 | 0.722 | 0.644 | 0.364
NCI-H1395 | 0.684 | 0.757 | 0.653 | 0.633 | 0.647 | 1.01 | 0.971 | 0.91 | 0.609 | 0.476 | 0.593 | 0.69 | 0.736 | 0.62 | 1 | 1.08 | 1.04 | 0.585 | 0.331 | 0.677
NCI-H1437 | 0.958 | 0.929 | 0.885 | 0.873 | 0.985 | 1.09 | 1.05 | 1.09 | 0.999 | 0.432 | 0.835 | 0.744 | 0.751 | 0.75 | 1.25 | 1.23 | 1.32 | 1.07 | 0.848 | 0.877
NCI-H1650 | 0.651 | 0.609 | 0.747 | 0.555 | 0.697 | 1.26 | 0.934 | 0.83 | 0.506 | 0.387 | 0.444 | 0.412 | 0.451 | 0.687 | 0.877 | 0.64 | 0.635 | 0.247 | 0.262 | 0.631
NCI-H1651 | 0.813 | 0.716 | 0.768 | 0.747 | 0.778 | 0.962 | 0.806 | 0.759 | 0.76 | 0.611 | 0.668 | 0.629 | 0.543 | 0.572 | 0.81 | 0.666 | 0.673 | 0.646 | 0.445 | 0.687
NCI-H1666 | 0.869 | 0.839 | 0.862 | 0.814 | 0.817 | 0.948 | 0.895 | 0.917 | 0.617 | 0.324 | 0.905 | 0.869 | 0.778 | 0.816 | 1.12 | 0.989 | 1.07 | 0.862 | 0.425 | 1.02
NCI-H1734 | 0.683 | 0.554 | 0.647 | 0.502 | 0.447 | 0.729 | 0.695 | 0.629 | 0.404 | 0.374 | 0.602 | 0.652 | 0.55 | 0.534 | 0.743 | 0.613 | 0.586 | 0.427 | 0.367 | 0.556
NCI-H1755 | 0.798 | 0.699 | 0.797 | 0.576 | 0.775 | 0.697 | 0.591 | 0.501 | 0.273 | 0.142 | 0.789 | 0.728 | 0.7 | 0.532 | 0.778 | 0.706 | 0.617 | 0.463 | 0.185 | 0.67
NCI-H1793 | 0.404 |  | 0.255 | 0.277 | 0.271 | 0.323 | 0.182 | 0.238 | 0.166 | 0.152 | 0.257 | 0.301 | 0.24 | 0.248 | 0.553 | 0.528 | 0.374 | 0.337 | 0.359 | 0.235
NCI-H1915 | 0.756 | 0.591 | 0.645 | 0.548 | 0.595 | 0.803 | 0.728 | 0.75 | 0.44 | 0.261 | 0.662 | 0.653 | 0.573 | 0.381 | 1.05 | 0.804 | 0.957 | 0.431 | 0.298 | 0.49
NCI-H1944 | 0.499 | 0.395 | 0.362 | 0.471 | 0.43 | 1.03 | 1.07 | 0.976 | 0.695 | 0.504 | 0.393 | 0.413 | 0.397 | 0.303 | 0.849 | 0.684 | 0.701 | 0.291 | 0.21 | 0.353
NCI-H1975 | 0.829 | 0.776 | 0.824 | 0.786 | 0.774 | 0.895 | 1.02 | 1.03 | 0.412 | 0.308 | 0.555 | 0.785 | 0.72 | 0.486 | 0.918 | 0.817 | 0.722 | 0.439 | 0.225 | 0.553
NCI-H1993 | 0.448 | 0.5 | 0.511 | 0.558 | 0.432 | 0.872 | 0.7 | 0.724 | 0.581 | 0.736 | 0.486 | 0.521 | 0.535 | 0.521 | 0.641 | 0.59 | 0.561 | 0.472 | 0.496 | 0.601
NCI-H2009 | 0.69 | 0.563 | 0.815 | 0.634 | 0.66 | 1.23 | 1.12 | 1.3 | 0.761 | 0.235 | 0.615 | 0.67 | 0.532 | 0.406 | 1.15 | 0.984 | 0.925 | 0.882 | 0.216 | 0.408
